Results taken from patent publication US7179832B2, “Glycogen synthase kinase 3β inhibitor, composition and process for the preparation thereof” (Crystalgenomics, Inc., priority 2003, dated 2007).
Like-named read-outs stand apart in the source and are kept apart here.

Target: GSK-3β (Homo sapiens, UniProt P49841)
Assay: Assay for GSK-3β inhibiting activity (32P-ATP, phospho-CREB peptide substrate, filter paper, CPM)
Assay type: biochemical
Description: Assay for GSK-3β inhibiting activity
First, PCR (polymerase chain reaction) was carried out using human DNA as a template as well as primers which were designed to correspond to the 3′- and 5′ ends of the polynucleotide coding human GSK-3β gene (Genbank Accession No.: L33801). The BamH1/XhoI fragment of the amplified PCR product thus obtained was inserted into the pGex vector between the BamH1 and XhoI sites, and the vector obtained was transformed into E. coli BL21(DE3). The transformed cells thus obtained was incubated in […] (1% Bacto-trypton, 0.5% yeast extract, 1% NaCl) containing ampicillin ([…]) until the optical density at 600 nm reached about 0.5. The cultured mixture was cooled to 18° C. and isopropyl β-D-thiogalacto-pyranoside (IPTG) was added thereto to a final concentration of 0.5 mM. After 16 hours, the resultant was centrifuged at 10,000×g for 10 min, the collected cells were suspended in a buffer solution (30 mM Tris-HCl (pH 7.5), 100 mM NaCl, 5% glycerol, 2 mM DTT) and the cells were disrupted using Sonic Dismembrator (Fisher, U.S.A.) in a ice bath. The resulting solution was centrifuged at 16,000 rpm for 30 minutes. […] The purified GSK-3β protein was diluted in a buffer solution (20 mM HEPES (pH 7.5), 5% glycerol, 2 mM DTT) to a final concentration of 50 mM NaCl and the resulting solution was subjected to mono S column chromatography (eluent: linear gradient from 0M to 1M NaCl buffer) using mono S column (Pharmacia Biotech, U.S.A.) equilibrated in the same buffer solution to obtain GSK-3β protein.
The reaction was stopped by adding 5 μl of 5% phosphoric acid to 25 μl of the resulting solution. The resulting mixture was centrifuged at 15,000 rpm for 10 min, 20 μl of the supernatant was added dropwise to Whatman p81 filter paper, and then, the resulting filter paper was washed with 0.5% phosphate buffer for 10 min. The filter paper was further washed 3 times and the enzymatic activity was determined by examining the extent of phospho-CREB peptide phosphorylation which is represented by the unit of count per minute (CPM), measured with a β-counter (Packard, USA).
The GSK-3β inhibiting activity was then calculated in accordance with the following equation:
[formula] wherein the blank represents a value obtained without the use of the enzyme and the compound of the present invention, and the control, in the absence of the compound of the present invention.

[1] = GSK-3β inhibiting activity, 100 nM GSK-3β protein, 100 μM phospho-CREB peptide, 100 μM ATP, 30° C. for 1 hour, read-out: IC50

Sequence of GSK-3β (P49841 whole entry): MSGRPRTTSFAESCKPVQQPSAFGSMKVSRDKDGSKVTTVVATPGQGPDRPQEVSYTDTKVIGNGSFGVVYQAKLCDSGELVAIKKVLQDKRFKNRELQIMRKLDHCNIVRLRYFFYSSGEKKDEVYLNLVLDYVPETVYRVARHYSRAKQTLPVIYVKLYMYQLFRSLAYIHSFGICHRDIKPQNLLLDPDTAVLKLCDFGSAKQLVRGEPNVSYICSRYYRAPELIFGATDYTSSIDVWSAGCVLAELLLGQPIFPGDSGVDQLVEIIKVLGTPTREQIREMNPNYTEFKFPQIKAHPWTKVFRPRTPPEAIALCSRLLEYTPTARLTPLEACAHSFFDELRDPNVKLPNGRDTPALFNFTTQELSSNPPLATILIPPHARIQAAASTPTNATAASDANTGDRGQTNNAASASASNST

SMILES | IC50 [1] | IC50 (IC50 (μM))
O=C(NCCN1CCOCC1)c1ccc(O)c2[nH]c(-c3ccc(Cl)cc3Cl)nc12 [Compound 108] | > 1 µM | 
CCS(=O)(=O)Nc1ccc(CCNC(=O)c2ccc(O)c3nc(-c4ccc(Cl)cc4Cl)[nH]c23)cc1 [Compound 109] |  | 0.03 µM
O=C(NCCNc1ccc([N+](=O)[O-])cn1)c1ccc(O)c2[nH]c(-c3ccc(Cl)cc3Cl)nc12 [Compound 110] | 0.28 µM | 
O=C(NCCc1ccccn1)c1ccc(O)c2[nH]c(-c3ccc(Cl)cc3Cl)nc12 [Compound 111] | > 1 µM | 
CCCCC(=O)Nc1ccc(CCNC(=O)c2ccc(O)c3[nH]c(-c4ccc(Cl)cc4Cl)nc23)cc1 [Compound 113] | 0.19 µM | 
CN1CCN(CCNC(=O)c2ccc(O)c3[nH]c(-c4ccc(F)cc4)nc23)CC1 [Compound 118] | > 5 µM | 
O=C(NCCN1CCOCC1)c1ccc(O)c2[nH]c(-c3ccc(F)cc3)nc12 [Compound 119] | > 5 µM | 
O=C(NCCc1c[nH]cn1)c1ccc(O)c2[nH]c(-c3ccc(F)cc3)nc12 [Compound 125] | > 1 µM | 
CN1CCN(CC(=O)Nc2ccc(CCNC(=O)c3ccc(O)c4[nH]c(-c5ccc(F)cc5)nc34)cc2)CC1 [Compound 127] | 0.18 µM | 
CCN1CCN(CC(=O)Nc2ccc(CCNC(=O)c3ccc(O)c4[nH]c(-c5ccc(F)cc5)nc34)cc2)CC1 [Compound 128] | 0.15 µM | 
CCN(CC)CC(=O)Nc1ccc(CCNC(=O)c2ccc(O)c3[nH]c(-c4ccc(F)cc4)nc23)cc1 [Compound 130] | 0.33 µM | 
Nc1ccc(CCNC(=O)c2ccc(O)c3[nH]c(-c4ccc(F)cc4)nc23)cc1 [Compound 131] | 0.17 µM | 
O=C(NCCc1ccc(N2CCOCC2)cc1)c1ccc(O)c2[nH]c(-c3ccc(F)cc3)nc12 [Compound 132] | 0.19 µM | 
O=C(CN1CCOCC1)Nc1ccc(CCNC(=O)c2ccc(O)c3nc(-c4ccc(F)cc4)[nH]c23)cc1 [Compound 134] |  | 0.04 µM
CN(C)c1ccc(CCNC(=O)c2ccc(O)c3[nH]c(-c4ccc(F)cc4)nc23)cc1 [Compound 135] | > 1 µM | 
O=C(NCCc1ccc(OCCN2CCOCC2)cc1)c1ccc(O)c2[nH]c(-c3ccc(F)cc3)nc12 [Compound 136] | 0.24 µM | 
COc1ccccc1CCNC(=O)c1ccc(O)c2[nH]c(-c3ccc(F)cc3)nc12 [Compound 138] | > 1 µM | 
CS(=O)(=O)Nc1ccc(CCNC(=O)c2ccc(O)c3nc(-c4ccc(F)cc4F)[nH]c23)cc1 [Compound 140] | > 1 µM | 
CCS(=O)(=O)Nc1ccc(CCNC(=O)c2ccc(O)c3nc(-c4ccc(F)cc4Cl)[nH]c23)cc1 [Compound 145] |  | 0.002 µM
O=C(NCCN1CCOCC1)c1ccc(O)c2[nH]c(-c3ccc(F)cc3Cl)nc12 [Compound 147] | 0.21 µM | 
CN1CCN(CCNC(=O)c2ccc(O)c3[nH]c(-c4ccc(F)cc4Cl)nc23)CC1 [Compound 148] | > 1 µM | 
CS(=O)(=O)Nc1ccc(NCCNC(=O)c2ccc(O)c3[nH]c(-c4ccc(F)cc4Cl)nc23)nc1 [Compound 152] | 0.24 µM | 
O=C(NCCc1c[nH]cn1)c1ccc(O)c2[nH]c(-c3ccc(F)cc3Cl)nc12 [Compound 154] | > 1 µM | 
CN1CCN(CC(=O)Nc2ccc(CCNC(=O)c3ccc(O)c4[nH]c(-c5ccc(F)cc5Cl)nc34)cc2)CC1 [Compound 156] | 0.28 µM | 
CCN1CCN(CC(=O)Nc2ccc(CCNC(=O)c3ccc(O)c4[nH]c(-c5ccc(F)cc5Cl)nc34)cc2)CC1 [Compound 157] | 0.49 µM | 
CN(C)CC(=O)Nc1ccc(CCNC(=O)c2ccc(O)c3[nH]c(-c4ccc(F)cc4Cl)nc23)cc1 [Compound 158] | 0.23 µM | 
CCN(CC)CC(=O)Nc1ccc(CCNC(=O)c2ccc(O)c3[nH]c(-c4ccc(F)cc4Cl)nc23)cc1 [Compound 159] | 0.68 µM | 
Cc1ccc(S(=O)(=O)Nc2ccc(CCNC(=O)c3ccc(O)c4[nH]c(-c5ccc(F)c(Cl)c5)nc34)cc2)cc1 [Compound 160] | > 1 µM | 
CCCCNC(=O)c1ccc(O)c2[nH]c(-c3ccccc3)nc12 [Compound 162] | 0.24 µM | 
NCCCNC(=O)c1ccc(O)c2[nH]c(-c3ccccc3)nc12 [Compound 163] | > 1 µM | 

Further lines, results first:

IC50 [1] | IC50 (IC50 (μM)) | SMILES
0.05 µM |  | Cc1ccc(S(=O)(=O)Nc2ccc(CCNC(=O)c3ccc(O)c4[nH]c(-c5ccc(Cl)cc5Cl)nc34)cc2)cc1 [Compound 105]
0.05 µM |  | O=C(NCCc1ccc(N2C(=O)c3ccccc3C2=O)cc1)c1ccc(O)c2[nH]c(-c3ccc(Cl)cc3Cl)nc12 [Compound 107]
0.04 µM |  | CC(=O)Nc1ccc(CCNC(=O)c2ccc(O)c3[nH]c(-c4ccc(Cl)cc4Cl)nc23)cc1 [Compound 112]
0.001 µM |  | CS(=O)(=O)Nc1ccc(CCNC(=O)c2ccc(O)c3[nH]c(-c4ccc(F)cc4)nc23)cc1 [Compound 114]
0.026 µM |  | Cc1ccc(S(=O)(=O)Nc2ccc(CCNC(=O)c3ccc(O)c4nc(-c5ccc(F)cc5)[nH]c34)cc2)cc1 [Compound 115]
0.003 µM |  | CCS(=O)(=O)Nc1ccc(CCNC(=O)c2ccc(O)c3[nH]c(-c4ccc(F)cc4)nc23)cc1 [Compound 116]
0.03 µM |  | CC(=O)Nc1ccc(CCNC(=O)c2ccc(O)c3[nH]c(-c4ccc(F)cc4)nc23)cc1 [Compound 117]
0.07 µM |  | CCCCC(=O)Nc1ccc(CCNC(=O)c2ccc(O)c3[nH]c(-c4ccc(F)cc4)nc23)cc1 [Compound 120]
0.03 µM |  | O=C(NCCc1ccc(O)cc1)c1ccc(O)c2[nH]c(-c3ccc(F)cc3)nc12 [Compound 121]
0.05 µM |  | CS(=O)(=O)Nc1ccc(NCCNC(=O)c2ccc(O)c3[nH]c(-c4ccc(F)cc4)nc23)nc1 [Compound 123]
0.07 µM |  | Cc1ccc(S(=O)(=O)Nc2ccc(NCCNC(=O)c3ccc(O)c4[nH]c(-c5ccc(F)cc5)nc34)nc2)cc1 [Compound 124]
0.12 µM |  | CN(C)CC(=O)Nc1ccc(CCNC(=O)c2ccc(O)c3[nH]c(-c4ccc(F)cc4)nc23)cc1 [Compound 129]
0.005 µM |  | O=C(NCCc1ccccc1O)c1ccc(O)c2[nH]c(-c3ccc(F)cc3)nc12 [Compound 137]
0.12 µM |  | O=C(NCCc1cccc(Br)c1)c1ccc(O)c2[nH]c(-c3ccc(F)cc3)nc12 [Compound 139]
0.043 µM |  | Cc1ccc(S(=O)(=O)Nc2ccc(CCNC(=O)c3ccc(O)c4[nH]c(-c5ccc(F)cc5F)nc34)cc2)cc1 [Compound 141]
0.001 µM |  | CCS(=O)(=O)Nc1ccc(CCNC(=O)c2ccc(O)c3[nH]c(-c4ccc(F)cc4F)nc23)cc1 [Compound 142]
0.002 µM |  | CS(=O)(=O)Nc1ccc(CCNC(=O)c2ccc(O)c3[nH]c(-c4ccc(F)cc4Cl)nc23)cc1 [Compound 143]
0.006 µM |  | Cc1ccc(S(=O)(=O)Nc2ccc(CCNC(=O)c3ccc(O)c4[nH]c(-c5ccc(F)cc5Cl)nc34)cc2)cc1 [Compound 144]
0.07 µM |  | CC(=O)Nc1ccc(CCNC(=O)c2ccc(O)c3[nH]c(-c4ccc(F)cc4Cl)nc23)cc1 [Compound 146]
0.14 µM |  | CCCCC(=O)Nc1ccc(CCNC(=O)c2ccc(O)c3[nH]c(-c4ccc(F)cc4Cl)nc23)cc1 [Compound 149]
0.06 µM |  | O=C(NCCc1ccc(O)cc1)c1ccc(O)c2[nH]c(-c3ccc(F)cc3Cl)nc12 [Compound 150]
0.05 µM |  | Cc1ccc(S(=O)(=O)Nc2ccc(NCCNC(=O)c3ccc(O)c4[nH]c(-c5ccc(F)cc5Cl)nc34)nc2)cc1 [Compound 153]
0.09 µM |  | CS(=O)(=O)Nc1ccc(CCNC(=O)c2ccc(O)c3[nH]c(-c4ccc(F)c(Cl)c4)nc23)cc1 [Compound 161]
